From patent publication US20070105961A1, “1-Amino-alkylcyclohexanes as 5-HT3 and neuronal nicotinic receptor antagonists” (MERZ PHARMA GMBH & CO. KGAA, priority 2000, published 2007)
Where two headings read alike, the source gives them in different places.

What was measured:
NMDA receptors [1] = biological target: T1, NMDA receptors; conditions: rat cortical membranes, cited from earlier work
T1 construct: other: rat cortical membranes

NMDA receptors [2] = biological target: T2, NMDA receptors; conditions: at −70 mV, cultured rat hippocampal neurones, cited from earlier work
T2 construct: PC NMDA (antagonism of NMDA-induced inward currents); other: at −70 mV, cultured rat hippocampal neurones; PC (PC NMDA, antagonism of NMDA-induced inward currents)

[3] = biological target: T3, α7 neuronal nicotinic receptors (Rattus norvegicus, UniProt Q05941); assay: patch clamp, antagonism of Ach-induced inward currents in cultured hippocampal neurones; format: cell-based
T3 construct: against peak responses of cultured hippocampal neurones to Ach (1 mM) applied for 2 secs; endogenous in cells; host or cells: cultured rat embryonic hippocampal neurones

5-HT3 receptors = biological target: T4, 5-HT3 receptors (Mus musculus, UniProt P23979); assay: patch clamp, antagonism of serotonin-induced inward currents in N1E-115 cells; format: cell-based; conditions: serotonin (10 μM) applied for 2 secs, read-out: 5HT3 IC50 against steady-state responses
T4 construct: against “steady-state” responses of N1E-115 cells to serotonin (10 μM); host or cells: N1E-115 cells
T4 sequence (P23979 24-489): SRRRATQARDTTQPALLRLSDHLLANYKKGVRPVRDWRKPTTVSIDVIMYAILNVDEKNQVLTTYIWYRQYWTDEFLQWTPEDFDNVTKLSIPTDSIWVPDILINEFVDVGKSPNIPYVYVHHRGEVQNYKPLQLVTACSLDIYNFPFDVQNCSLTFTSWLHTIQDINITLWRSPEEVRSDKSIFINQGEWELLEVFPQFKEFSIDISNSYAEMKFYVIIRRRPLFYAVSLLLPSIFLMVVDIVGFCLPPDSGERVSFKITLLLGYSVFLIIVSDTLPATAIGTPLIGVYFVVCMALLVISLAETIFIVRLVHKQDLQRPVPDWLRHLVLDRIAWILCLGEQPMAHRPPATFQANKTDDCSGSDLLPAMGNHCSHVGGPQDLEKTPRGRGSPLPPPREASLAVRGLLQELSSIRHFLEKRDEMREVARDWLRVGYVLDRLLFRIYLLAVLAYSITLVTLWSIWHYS
Procedure: N1E-115 cells were purchased from the European collection of cell cultures (ECACC, Salisbury, UK) and stored at −80° C. until further use. The cells were plated at a density of 100,000 cells cm^−2 onto plastic Petri dishes (Falcon) and were nourished with NaHCO3/HEPES-buffered minimum essential medium (MEM) supplemented with 15% foetal calf serum (Gibco) and incubated at 37° C. with 5% CO2 at 95% humidity. The medium was exchanged completely daily. Once every three days, cells were re-seeded onto fresh Petri dishes following treatment with trypsin-EDTA (1% in PBS), resuspension in MEM, and centrifugation at 1000 for 4 mins.
Patch clamp recordings were made from lifted cells, 2-3 days following seeding with polished glass electrodes (2-3 MΩ) in the whole cell mode at room temperature (20-22° C.) with an EPC-7 amplifier (List). Test substances were applied as for hippocampal cells. The contents of the intracellular solution were as follows (mM): CsCl (130), HEPES (10), EGTA (10), MgCl2 (2), CaCl2 (2), K-ATP (2), Tris-GTP (0.2), D-Glucose (10); pH was adjusted to 7.3 with CsOH or HCl. The extracellular solutions had the following basic composition (mM): NaCl (124), KCl (2.8), HEPES (10), pH 7.3 with NaOH or HCl.
Only results from stable cells were accepted for inclusion in the final analysis, i.e., showing at least 75% recovery of responses to agonist (serotonin or Ach) following removal of the antagonist tested. Despite this, recovery from drug actions wasn't always 100% because of rundown in some cells (<=10% over 10 mins). When present, this was always compensated by basing the % antagonism at each concentration on both control and recovery and assuming a linear time course for this rundown. All antagonists were assessed at steady-state blockade with 3 to 6 concentrations on at least 5 cells. Equilibrium blockade was achieved within 2 to 5 agonist applications, depending on antagonist concentration.
FIG. 1A and FIG. 1B show concentration-dependence of the blockade of 5HT3 receptors by MRZ 2/633 in cultured N1E-115 cells. Serotonin (10 μM) was applied for 2 seconds every 30 seconds in the continuous presence of various concentrations of MRZ 2/633 (1-10 μM).
B: Peak and steady-state (plateau) serotonin current responses were normalized to control levels and plotted as means (±SEM) against MRZ 2/633 concentration (n=8). Estimation of IC50s and curve fitting were made according to the 4 parameter logistic equation (GraFit, Erithacus Software).

[4] = read-out: [3H]MK (displacement of [3H]MK-801 binding), Table 3
[5] = read-out: [3H]MK- (displacement of [3H]MK-801 binding), Table 2
[6] = Table 2, read-out: PC NMDA (antagonism of NMDA-induced inward currents)
[7] = Table 3, read-out: PC (PC NMDA, antagonism of NMDA-induced inward currents)
[8] = cultured hippocampal neurones, Ach (1 mM) applied for 2 secs, read-out: PC Ach IC50 against peak responses

T3 sequence (Q05941 23-502): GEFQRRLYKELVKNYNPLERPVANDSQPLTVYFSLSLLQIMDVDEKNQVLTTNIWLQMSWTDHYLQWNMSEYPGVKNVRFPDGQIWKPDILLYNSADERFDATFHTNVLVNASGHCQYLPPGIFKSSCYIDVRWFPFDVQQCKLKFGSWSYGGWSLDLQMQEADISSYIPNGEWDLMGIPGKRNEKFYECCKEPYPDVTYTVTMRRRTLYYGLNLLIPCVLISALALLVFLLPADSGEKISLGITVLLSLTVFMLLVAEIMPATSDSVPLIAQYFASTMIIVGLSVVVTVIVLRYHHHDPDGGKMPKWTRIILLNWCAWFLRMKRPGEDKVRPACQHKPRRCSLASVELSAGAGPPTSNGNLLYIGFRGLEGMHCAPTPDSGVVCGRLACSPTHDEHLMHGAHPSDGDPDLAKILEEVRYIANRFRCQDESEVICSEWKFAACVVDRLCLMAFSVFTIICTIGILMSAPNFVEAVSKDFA

Row | Compound | Ki (NMDA receptors [1]; [4]) [µM] | Ki (NMDA receptors [1]; [5]) [µM] | IC50 (NMDA receptors [2]; [6]) [µM] | IC50 (NMDA receptors [2]; [7]) [µM] | IC50 [3, 8] [µM] | IC50 (5-HT3 receptors) [µM] | α7 neuronal nicotinic antagonism (in words) ([3]; hippocampal neurones) | IC50 [3] [µM] | fold more effective as α7 neuronal nicotinic antagonist than as NMDA receptor antagonist ([3]; Table 3 and FIG. 4) [fold]
1 | CCC1(C)CC(C)(C)CC(C)(N)C1 (mixture of isomers) [MRZ 2/615, 1-Amino-1,3,5,5-tetramethyl-3-ethylcyclohexane (mixture of diastereomers)] | 2.29 | 2.29 | 1.3 | 2.9 | 2.21 | 2.5 |  |  | 
2 | CC1CC(C)CC(C)(N)C1 (mixture of isomers) [MRZ 2/616, 1-Amino-1,3,5-trimethylcyclohexane (mixture of diastereomers)] | 9.94 | 10.4 | 33.2 | 33.2 | 3.4 | 38.7 | much more potent in this regard than previously reported for NMDA receptors |  | 
3 | CCCC1(C)CCCC(C)(N)C1 (mixture of isomers) [MRZ 2/617, 1-Amino-1,3-dimethyl-3-propylcyclohexane (mixture of diastereomers)] | 36.1 |  |  | 63.9 | 1.16 |  |  |  | 
4 | C[C@@H]1CC(C)(C)C[C@@](C)(N)C1 (relative stereo) [MRZ 2/607, 1-Amino-1,3,3,5(trans)-tetramethylcyclohexane (axial amino group)] |  | 7.7 | 13.8 |  |  | 22.3 |  |  | 
5 | C[C@H]1CCC[C@](C)(N)C1 (relative stereo) [MRZ 2/625, 1-Amino-1,3(trans)-dimethylcyclohexane] | 49 |  |  | 245 | 3.29 |  |  |  | 
6 | CCC[C@H]1CCC[C@](C)(N)C1 (relative stereo) [MRZ 2/627, 1-Amino-1-methyl-3(trans)propylcyclohexane] | 67.3 |  |  | 150 | 2.6 |  |  |  | 
7 | CC[C@H]1CCC[C@](C)(N)C1 (relative stereo) [MRZ 2/629, 1-Amino-1-methyl-3(trans)ethylcyclohexane] | 46.7 |  |  | 219 | 2.05 |  |  |  | 
8 | CC[C@@H]1CC(C)(C)C[C@](C)(N)C1 (relative stereo) [MRZ 2/632, 1-Amino-1,3,3-trimethyl-5(cis)ethylcyclohexane] |  | 2.8 | 6.4 |  |  | 2.4 |  |  | 
9 | CC[C@@H]1CC(C)(C)C[C@@](C)(N)C1 (relative stereo) [MRZ 2/633, 1-Amino-1,3,3-trimethyl-5(trans)ethylcyclohexane] |  | 4.7 | 13.9 |  |  | 7.7 |  |  | 
10 | CC1(C)CC(C)(C)CC(C)(N)C1 [MRZ 2/579, 1-Amino-1,3,3,5,5-pentamethylcyclohexane] | 1.44 | 1.4 | 1.3 | 1.3 | 30 | 1.7 |  |  | 
11 | CCCC1(N)CC(C)(C)CC(C)(C)C1 [MRZ 2/601, 1-Amino-1-propyl-3,3,5,5-tetramethylcyclohexane] |  | 7.7 | 10 |  |  | 1.3 |  |  | 
12 | CCCC1(C)CC(C)CC(C)(N)C1 (stereo not drawn) [MRZ 2/618, 1-Amino-1,3(trans),5(trans)-trimethyl-3(cis)-propylcyclohexane] | 22.8 |  |  | 57.5 | 0.65 |  |  |  | 
13 | CCC1(C)CCCC(C)(N)C1 (centres unmarked) [MRZ 2/620, 1-Amino-1,3-dimethyl-3-ethylcyclohexane] | 24.2 |  |  | 99 | 2.44 |  |  |  | 
14 | CC1(C)CCCC(C)(N)C1 (centres unmarked) [MRZ 2/621, 1-Amino-1,3,3-trimethylcyclohexane] | 30.6 | 30.6 | 92.4 | 92.4 |  | 20.3 |  | 0.65 | 
15 | CNC1(C)CC(C)(C)CC(C)(C)C1 [MRZ 2/640, N-methyl-1-Amino-1,3,3,5.5-pentamethylcyclohexane] |  | 4.8 | 14.6 |  |  | 10.8 |  |  | 
16 | CC1(N)CCCCC1 [MRZ 2/641, 1-Amino-1-methylcyclohexane] | 136 |  |  | > 100 | 2.4 |  |  |  | 
17 | CN(C)C1(C)CC(C)(C)CC(C)(C)C1 [MRZ 2/642, N,N-dimethyl-1-amino-1,3,3,5,5-pentamethylcyclohexane] | 10.7 | 10.7 | 42.5 | 42.5 |  | 35.5 |  | 1 | 
18 | CC1(C)CC(C)(C)CC(C)(N2CCCC2)C1 [MRZ 2/705, N-(1,3,3,5,5-pentamethylcyclohexyl)pyrrolidine] | 7.09 |  |  | 20.8 | 1.3 |  |  |  | 16
